Data reported in patent publication US20210070748A1, “INHIBITORS OF BRUTONS TYROSINE KINASE” (Pharmacyclics LLC, priority 2015, published 2021).

Key:
Assay type in all cases: biochemical
LCK = LCK (Homo sapiens, UniProt P06239); assay: Inhibition of a panel of kinases, in vitro HotSpot kinase assay: LCK; details: Table 15, C compounds; 1 μM ATP; read-out: IC50 LCK
BTK-WT = molecular target: T1, BTK-WT (Homo sapiens, UniProt Q06187); assay: Btk in vitro inhibitory activity (one of Method A TR-FRET, Method B electrophoretic mobility shift, Method C radiometric filter binding); details: Table 15, C compounds; read-out: IC50 BTK-WT
T1 construct: purified from insect cells as a full-length construct containing an N-terminal 6X-His tag; His6 (N); made in house; host or cells: insect cells (baculovirus Sf21 in Method B)

TXK = molecular target: T2, TXK (Homo sapiens, UniProt P42681); assay: Inhibition of a panel of kinases, in vitro HotSpot kinase assay: TXK; details: Table 15, C compounds; 1 μM ATP
T2 sequence (P42681 1-527): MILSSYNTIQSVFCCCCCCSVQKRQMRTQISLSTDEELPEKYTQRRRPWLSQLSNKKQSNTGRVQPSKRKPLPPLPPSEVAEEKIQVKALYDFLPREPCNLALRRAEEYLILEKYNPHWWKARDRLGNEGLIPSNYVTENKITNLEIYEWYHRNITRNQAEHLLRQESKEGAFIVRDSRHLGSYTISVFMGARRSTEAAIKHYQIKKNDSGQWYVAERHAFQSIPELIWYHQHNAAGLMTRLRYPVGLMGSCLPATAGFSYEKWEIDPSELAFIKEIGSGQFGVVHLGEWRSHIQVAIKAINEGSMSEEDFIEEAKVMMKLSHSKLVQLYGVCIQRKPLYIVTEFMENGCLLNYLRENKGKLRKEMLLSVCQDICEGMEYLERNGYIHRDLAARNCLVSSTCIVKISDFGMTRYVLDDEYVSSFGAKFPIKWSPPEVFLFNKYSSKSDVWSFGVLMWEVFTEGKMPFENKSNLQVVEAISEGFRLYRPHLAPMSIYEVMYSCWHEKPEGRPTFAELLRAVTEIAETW
Protocol: (§1) The degree of inhibition of a panel of kinases is determined using the in vitro HotSpot kinase assay (purified enzymes, ^33P-ATP, an appropriate substrate and 1 μM ATP).

ITK = molecular target: T3, ITK (Homo sapiens, UniProt Q08881); assay: Inhibition of a panel of kinases, in vitro HotSpot kinase assay: ITK; details: Table 15, C compounds; 1 μM ATP
T3 sequence (Q08881 1-620): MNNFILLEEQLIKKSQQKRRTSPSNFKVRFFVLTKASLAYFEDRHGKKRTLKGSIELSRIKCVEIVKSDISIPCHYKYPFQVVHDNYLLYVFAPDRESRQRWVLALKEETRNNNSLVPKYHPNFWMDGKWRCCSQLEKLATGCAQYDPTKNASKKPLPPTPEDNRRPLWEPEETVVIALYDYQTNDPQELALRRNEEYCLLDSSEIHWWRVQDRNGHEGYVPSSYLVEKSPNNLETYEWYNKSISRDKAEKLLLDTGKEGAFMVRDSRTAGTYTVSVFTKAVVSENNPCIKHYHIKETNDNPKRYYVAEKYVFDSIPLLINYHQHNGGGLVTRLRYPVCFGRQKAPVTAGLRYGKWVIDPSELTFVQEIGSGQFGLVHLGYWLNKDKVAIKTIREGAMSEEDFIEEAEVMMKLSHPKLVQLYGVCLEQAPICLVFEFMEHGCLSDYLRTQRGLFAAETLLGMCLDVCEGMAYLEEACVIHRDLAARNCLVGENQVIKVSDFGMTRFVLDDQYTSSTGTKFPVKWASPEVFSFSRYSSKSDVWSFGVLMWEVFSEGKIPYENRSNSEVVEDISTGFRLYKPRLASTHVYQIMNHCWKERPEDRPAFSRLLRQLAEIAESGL
Protocol: as §1

T1 sequence (Q06187 whole entry): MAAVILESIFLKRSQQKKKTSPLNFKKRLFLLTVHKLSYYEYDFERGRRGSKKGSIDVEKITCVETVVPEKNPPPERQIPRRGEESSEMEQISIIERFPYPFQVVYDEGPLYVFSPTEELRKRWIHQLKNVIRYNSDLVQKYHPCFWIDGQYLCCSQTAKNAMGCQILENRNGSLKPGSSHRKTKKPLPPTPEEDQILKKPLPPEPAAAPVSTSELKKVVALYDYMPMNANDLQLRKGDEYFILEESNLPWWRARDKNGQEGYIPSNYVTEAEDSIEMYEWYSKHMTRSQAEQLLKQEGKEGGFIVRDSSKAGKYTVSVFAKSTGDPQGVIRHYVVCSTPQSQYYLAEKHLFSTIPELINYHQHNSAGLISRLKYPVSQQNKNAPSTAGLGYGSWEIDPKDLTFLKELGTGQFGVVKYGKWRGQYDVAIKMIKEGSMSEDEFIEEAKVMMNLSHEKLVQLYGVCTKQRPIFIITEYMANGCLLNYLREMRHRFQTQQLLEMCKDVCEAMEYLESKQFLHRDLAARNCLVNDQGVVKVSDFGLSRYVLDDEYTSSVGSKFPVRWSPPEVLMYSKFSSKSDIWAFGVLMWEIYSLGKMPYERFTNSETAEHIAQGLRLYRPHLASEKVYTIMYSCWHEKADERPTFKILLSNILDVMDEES
LCK, sequence (P06239 whole entry): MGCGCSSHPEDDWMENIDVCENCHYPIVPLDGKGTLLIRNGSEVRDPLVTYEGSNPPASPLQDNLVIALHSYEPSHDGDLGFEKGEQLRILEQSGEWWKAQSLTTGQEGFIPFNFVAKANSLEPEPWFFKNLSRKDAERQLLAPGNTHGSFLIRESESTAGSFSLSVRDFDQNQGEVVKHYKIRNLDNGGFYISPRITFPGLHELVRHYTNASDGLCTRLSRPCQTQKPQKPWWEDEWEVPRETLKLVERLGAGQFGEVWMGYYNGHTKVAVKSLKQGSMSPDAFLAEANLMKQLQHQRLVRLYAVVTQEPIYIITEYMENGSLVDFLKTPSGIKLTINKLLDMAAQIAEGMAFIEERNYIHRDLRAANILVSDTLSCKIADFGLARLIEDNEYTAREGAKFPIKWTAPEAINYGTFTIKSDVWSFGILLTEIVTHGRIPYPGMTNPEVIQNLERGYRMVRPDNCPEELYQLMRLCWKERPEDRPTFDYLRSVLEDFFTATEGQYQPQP

Row | Structure (SMILES) | IC50 (LCK) [nM] | IC50 (BTK-WT) [nM] | IC50 (TXK) [nM] | IC50 (ITK) [nM]
1 | C=CC(=O)N1CCC[C@@H](Nc2nnc(C(N)=O)c(Nc3ccc(C4CCN(C(=O)CC)CC4)cc3)n2)C1 [Example C-57, (R)-3-(1-acryloylpiperidin-3-ylamino)-5-(4-(1-propionylpiperidin-4-yl)phenylamino)-1,2,4-triazine-6-carboxamide] | 10 to 100 | ≤ 10 | ≤ 10 | ≤ 10
2 | C=CC(=O)N1CCC[C@@H](Nc2nnc(C(N)=O)c(Nc3ccc(C(C)(C)C)cc3)n2)C1 [Example C-40, (R)-3-(1-acryloylpiperidin-3-ylamino)-5-(4-tert-butylphenylamino)-1,2,4-triazine-6-carboxamide] | 100 to 1000 | ≤ 10 | ≤ 10 | ≤ 10
3 | C=CC(=O)N1CCC[C@@H](Nc2nnc(C(N)=O)c(Nc3cc(C)ns3)n2)C1 [Example C-56, (R)-3-(1-acryloylpiperidin-3-ylamino)-5-(3-methylisothiazol-5-ylamino)-1,2,4-triazine-6-carboxamide] | 10 to 100 | ≤ 10 | ≤ 10 | ≤ 10
